The values that follow are results of earlier work, collected in patent publication US20090048110A1, “Orchid Culturing Method” (priority 2005, published 2009).

For this series, the system named is Dendrobium. Conditions: application to the mature pseudobulbs, but not the developing ones.

In the case of `c1ccc(CNc2ncnc3nc[nH]c23)cc1` [6-BAP, 6-benzylaminopurine], the triggering of spiking entry is recorded as “shown to trigger spiking”.
